# Test results taken from article PMC4259467, “Molecular Cloning, Characterization and Positively Selected Sites of the Glutathione S-Transferase Family from Locusta migratoria” (PLoS ONE, 2014).
# Key:
# Experiment in all cases: spectrophotometric GST assay, steady state
# Type in all cases: biochemical
# Settings in all cases: co-substrate GSH; pH and temperature not given; read-out: K m ^CDNB
# LmGSTO3 = molecular target: T1, LmGSTO3 (Locusta migratoria, UniProt V9Q2Q7)
# T1 construct: gene GSTo3; full-length ORF in pET28a, E. coli BL21(DE3), His-tag Ni-NTA purified
# T1 sequence (V9Q2Q7 1-241): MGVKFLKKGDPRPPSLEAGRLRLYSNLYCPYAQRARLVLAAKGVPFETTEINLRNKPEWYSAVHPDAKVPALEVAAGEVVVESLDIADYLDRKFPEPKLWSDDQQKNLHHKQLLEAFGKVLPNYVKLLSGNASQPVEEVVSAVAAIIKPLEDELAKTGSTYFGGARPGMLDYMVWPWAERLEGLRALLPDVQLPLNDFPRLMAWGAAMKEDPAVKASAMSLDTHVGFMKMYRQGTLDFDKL
# From the text: spectrophotometric GST assay, steady state on LmGSTO3
# LmGSTD5 = molecular target: T2, LmGSTD5 (Locusta migratoria, UniProt V9Q4A2)
# T2 construct: gene GSTd5; full-length ORF in pET28a, E. coli BL21(DE3), His-tag Ni-NTA purified
# T2 sequence (V9Q4A2 1-224): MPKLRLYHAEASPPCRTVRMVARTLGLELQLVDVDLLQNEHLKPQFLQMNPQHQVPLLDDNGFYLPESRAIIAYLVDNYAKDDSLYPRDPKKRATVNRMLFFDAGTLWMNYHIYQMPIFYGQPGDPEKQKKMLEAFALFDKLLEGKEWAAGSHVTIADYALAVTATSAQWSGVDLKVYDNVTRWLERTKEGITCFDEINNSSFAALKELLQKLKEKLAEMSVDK
# From the text: spectrophotometric GST assay, steady state on LmGSTD5
# LmGSTS5 = molecular target: T3, LmGSTS5 (Locusta migratoria, UniProt F4YUJ4)
# T3 construct: full-length ORF in pET28a, E. coli BL21(DE3), His-tag Ni-NTA purified
# T3 sequence (F4YUJ4 1-202): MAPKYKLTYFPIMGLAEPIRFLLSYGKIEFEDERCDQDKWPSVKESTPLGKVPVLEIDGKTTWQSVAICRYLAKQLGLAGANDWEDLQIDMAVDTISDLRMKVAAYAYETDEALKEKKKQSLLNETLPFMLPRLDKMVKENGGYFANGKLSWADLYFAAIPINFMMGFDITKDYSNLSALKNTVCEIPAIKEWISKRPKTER
# From the text: spectrophotometric GST assay, steady state on LmGSTS5
# LmGSTE5 = molecular target: T4, LmGSTE5 (Locusta migratoria, UniProt V9Q3X9)
# T4 construct: gene GSTe5; full-length ORF in pET28a, E. coli BL21(DE3), His-tag Ni-NTA purified
# T4 sequence (V9Q3X9 1-221): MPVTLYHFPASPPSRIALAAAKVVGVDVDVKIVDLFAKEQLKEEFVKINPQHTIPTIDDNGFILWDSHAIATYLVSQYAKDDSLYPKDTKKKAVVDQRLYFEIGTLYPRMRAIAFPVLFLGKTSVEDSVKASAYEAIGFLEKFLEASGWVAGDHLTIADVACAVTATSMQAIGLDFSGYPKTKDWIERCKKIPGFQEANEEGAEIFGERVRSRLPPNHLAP
# From the text: spectrophotometric GST assay, steady state on LmGSTE5
# LmGSTE4 = molecular target: T5, LmGSTE4 (Locusta migratoria, UniProt V9Q318)
# T5 construct: gene GSTe4; full-length ORF in pET28a, E. coli BL21(DE3), His-tag Ni-NTA purified
# T5 sequence (V9Q318 1-221): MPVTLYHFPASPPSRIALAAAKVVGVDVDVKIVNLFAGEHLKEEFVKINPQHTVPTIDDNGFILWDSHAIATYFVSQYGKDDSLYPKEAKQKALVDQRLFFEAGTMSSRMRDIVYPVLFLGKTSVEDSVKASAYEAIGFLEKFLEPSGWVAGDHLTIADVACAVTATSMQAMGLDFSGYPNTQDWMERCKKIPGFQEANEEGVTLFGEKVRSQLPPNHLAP
# From the text: spectrophotometric GST assay, steady state on LmGSTE4
# LmGSTO2 = molecular target: T6, LmGSTO2 (Locusta migratoria, UniProt I3QKS2)
# T6 construct: gene GSTo2; full-length ORF in pET28a, E. coli BL21(DE3), His-tag Ni-NTA purified
# T6 sequence (I3QKS2 1-245): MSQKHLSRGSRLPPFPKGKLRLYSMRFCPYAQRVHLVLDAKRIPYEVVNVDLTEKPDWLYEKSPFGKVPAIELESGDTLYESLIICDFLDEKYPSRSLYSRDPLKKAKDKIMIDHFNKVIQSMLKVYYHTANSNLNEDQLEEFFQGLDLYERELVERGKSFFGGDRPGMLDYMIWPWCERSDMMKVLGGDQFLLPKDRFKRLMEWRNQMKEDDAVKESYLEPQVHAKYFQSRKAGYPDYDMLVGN
# From the text: spectrophotometric GST assay, steady state on LmGSTO2
# LmGSTD2 = molecular target: T7, LmGSTD2 (Locusta migratoria, UniProt V9Q3Y3)
# T7 construct: gene GSTd2; full-length ORF in pET28a, E. coli BL21(DE3), His-tag Ni-NTA purified
# T7 sequence (V9Q3Y3 1-214): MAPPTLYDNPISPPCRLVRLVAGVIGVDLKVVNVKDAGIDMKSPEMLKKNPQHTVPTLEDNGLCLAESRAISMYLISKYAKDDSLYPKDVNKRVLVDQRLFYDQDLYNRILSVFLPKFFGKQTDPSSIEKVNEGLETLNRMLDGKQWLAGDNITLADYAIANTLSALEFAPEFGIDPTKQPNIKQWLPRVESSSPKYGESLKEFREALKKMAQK
# From the text: spectrophotometric GST assay, steady state on LmGSTD2
# LmGSTE1 = molecular target: T8, LmGSTE1 (Locusta migratoria, UniProt V9Q4G7)
# T8 construct: gene GSTe1; full-length ORF in pET28a, E. coli BL21(DE3), His-tag Ni-NTA purified
# T8 sequence (V9Q4G7 1-222): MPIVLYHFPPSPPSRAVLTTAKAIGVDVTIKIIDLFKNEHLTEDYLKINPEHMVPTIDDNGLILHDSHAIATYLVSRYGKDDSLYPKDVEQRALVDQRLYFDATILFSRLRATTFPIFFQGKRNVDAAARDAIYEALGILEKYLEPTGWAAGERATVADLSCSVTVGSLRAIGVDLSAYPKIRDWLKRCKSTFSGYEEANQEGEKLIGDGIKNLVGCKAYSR
# From the text: spectrophotometric GST assay, steady state on LmGSTE1
structure (smiles),measurement,setting,value
O=[N+]([O-])c1ccc(Cl)c([N+](=O)[O-])c1 [CDNB],Km,LmGSTO3,216 ± 4 µM
same,Km,LmGSTD5,21 ± 1 µM
same,Km,LmGSTS5,253 ± 26 µM
same,Km,LmGSTE5,26 ± 2 µM
same,Km,LmGSTE4,102 ± 8 µM
same,Km,LmGSTO2,841 ± 138 µM
same,Km,LmGSTD2,923 ± 49 µM
same,Km,LmGSTE1,7 ± 1 µM
